# Results as given in patent US20260159486A1, “BENZO[H]QUINAZOLINE-4-AMINE DERIVATIVES FOR THE TREATMENT OF CANCER” (Redona Therapeutics, Inc., priority 2021, published 2026).
# Key:
# recombinant human CLK3 = biological target: T1, recombinant human CLK3 (Homo sapiens, UniProt P49761); test: CLK3 kinase assay (LANCE Ultra); format: biochemical; details: CLK3 0.5 nM, ATP 300 μM, 3 hours at 30° C.
# T1 construct: purchased Thermo Fisher Scientific PV3826
# Method: CLK3 kinase activity was measured using the LANCE® Ultra technology (PerkinElmer) essentially as recommended by the supplier. Briefly, 2.5 μL of test sample at 4× the desired final concentration in 4% DMSO were dispensed into white, low volume, round bottom, 384 well plates (Corning, cat. no. 4512). 5 μL of a mixture containing recombinant human CLK3 (Thermo Fisher Scientific, cat. no. PV3826) and the labeled peptide substrate ULight™-CREBtide (PerkinElmer, cat. no. TRF0107) prepared in 1.33× kinase buffer (Thermo Fisher Scientific, cat. no. PV3189) were then added. Finally, the reactions were started by adding 2.5 μL of a 4× solution of ATP in kinase buffer. The plates were sealed with adhesive foils and incubated for 3 hours at 30° C. in the dark. The final concentrations of CLK3, ULight™-CREBtide, and ATP were 0.5 nM, 50 nM, and 300 μM, respectively. 5 μL of 40 mM EDTA were then added to terminate the reactions. The Eu-anti-phospho-CREB antibody (PerkinElmer, cat. no. TRF0200) diluted in LANCE® detection buffer (PerkinElmer, cat. no. CR97) was then added to a final concentration of 2 nM and the reactions were incubated for 1 hour at room temperature in the dark. The signals were measured using a Synergy 4 reader (BioTek) with a 320/80 nm filter for the excitation and 620/10 nm and 665/8 nm filters for the donor and acceptor emission, respectively. Relative inhibition values were calculated by normalizing the raw data using solvent control wells (0% inhibition) and wells that received no ATP (100% inhibition). IC50 values were calculated by fitting the concentration-response data to a sigmoidal 4-parameter logistic model. IC50 values for CLK3 are determined from duplicate measurements at ten different concentrations (serial 1:3 dilutions).
# MDA-MB-231 cells = test: MDA-MB-231 proliferation assay; format: cell-based; details: Homo sapiens, MDA-MB-231, 72 h, YO-PRO-1 Iodide readout
# Source text: (§1) MDA-MB-231 and CAL-51 Proliferation Assay
# (§2) Cells (MDA-MB-231 (American Type Culture Collection (ATCC), #HTB-26) or CAL-51 (Deutsche Sammlung von Mikroorganismen und Zellkulturen (DSMZ), #ACC302) as applicable) were cultivated in DMEM High Glucose (4.5 g/L) with L-Glutamine (BioConcept, cat. no. 1-26F03-I) supplemented with 1% Na-pyruvate (Sigma, cat. no. S8636), 1% Penicillin-Streptomycin (BioConcept, cat. no. 4-01F00H), and 10% FBS (Sigma, cat. no. F9665) using standard techniques. Cells were seeded in black, clear-bottom 384 well plates for tissue culture (Greiner Bio-One, cat. no. 781091) at a density of 750 cells per well in 20 μL medium and the plates were incubated overnight at 37° C. with 5% CO2 prior to treatment. Experimental compounds were serially diluted in DMSO to 200× the desired final concentrations. The solutions were then diluted 1:40 with culture medium and 5 μL aliquots were mixed into the wells containing the cells. The final concentration of DMSO was 0.5%. The plates were incubated for 72 hours and cell numbers were then measured using YO-PRO™-1 Iodide (ThermoFisher Scientific, cat. no. Y3603) essentially as recommended by the manufacturer. Briefly, a 12.5 μM solution of YO-PRO™_1 Iodide in 5× YO—PRO buffer (100 mM Na-citrate, 130 mM NaCl, pH 4) was combined with an equal volume of lysis buffer (0.6% NP-40, 30 mM EDTA, 30 mM EGTA, 0.33× YO—PRO buffer) and 12.5 μL of the mixture were dispensed into each well. The plates were incubated at room temperature in the dark for 30 minutes. Fluorescence intensity signals were then measured on a Synergy 4 reader (BioTek) using 485/20 nm and 530/25 nm filters for the excitation and emission, respectively. Relative proliferation values were calculated by normalizing the raw data using DMSO-treated cells (100% proliferation) and the signals obtained from cells that were evaluated at the time of compound addition (0% proliferation). The concentration-response data were fitted to a sigmoidal 4-parameter logistic model with the maximum constrained to 100%. GI50 values were calculated from the curves as the compound concentrations reducing proliferation to 50%.
# CAL-51 cells = test: CAL-51 proliferation assay; format: cell-based; details: Homo sapiens, CAL-51, 72 h, YO-PRO-1 Iodide readout
# Source text: as §1, §2
# T1 sequence (P49761 whole entry): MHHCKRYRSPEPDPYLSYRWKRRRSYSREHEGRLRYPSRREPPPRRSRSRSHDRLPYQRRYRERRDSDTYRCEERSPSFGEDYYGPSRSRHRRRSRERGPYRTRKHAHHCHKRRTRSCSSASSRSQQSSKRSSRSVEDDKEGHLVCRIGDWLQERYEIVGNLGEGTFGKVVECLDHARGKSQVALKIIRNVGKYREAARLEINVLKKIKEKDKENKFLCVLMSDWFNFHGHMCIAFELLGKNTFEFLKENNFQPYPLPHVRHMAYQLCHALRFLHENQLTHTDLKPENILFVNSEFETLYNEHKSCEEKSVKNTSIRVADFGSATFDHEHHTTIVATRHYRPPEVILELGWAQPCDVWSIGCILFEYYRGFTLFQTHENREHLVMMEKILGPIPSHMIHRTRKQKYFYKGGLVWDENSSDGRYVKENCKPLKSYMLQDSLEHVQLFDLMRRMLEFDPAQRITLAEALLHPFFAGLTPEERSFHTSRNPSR
SMILES,IC50 (recombinant human CLK3) [nM],GI50 (MDA-MB-231 cells) [nM],GI50 (CAL-51 cells) [nM]
"CCCOc1c(O[C@H]2CC[C@H](N)CC2)ccc2c1CC(C)(C)c1c(N)ncnc1-2 [Example 19, 8-(trans-4-aminocyclohexoxy)-5,5-dimethyl-7-propoxy-6H-benzo[h]quinazolin-4-amine]",30 to 100,100 to 2000,100 to 2000
"CC1(C)Cc2c(ccc(O[C@H]3CC[C@H](N)CC3)c2NS(=O)(=O)CCO)-c2ncnc(N)c21 [Example 42, N-[4-amino-8-(trans-4-aminocyclohexoxy)-5,5-dimethyl-6H-benzo[h]quinazolin-7-yl]-2-hydroxy-ethanesulfonamide]",30 to 100,> 2000,> 2000
"Nc1ncnc2c1C1(CCCC1)Cc1c-2ccc(O[C@H]2CC[C@H](N)CC2)c1NCCO [Example 60, 2-[[4-amino-8-(4-trans-aminocyclohexoxy)spiro[6H-benzo[h]quinazoline-5,1′-cyclopentane]-7-yl]amino]ethanol]",30 to 100,100 to 2000,100 to 2000
"CSCCN(C)c1c(O[C@H]2CC[C@@H](N)CC2)ccc2c1CC(C)(C)c1c(N)ncnc1-2 [Example 31, 8-(cis-4-aminocyclohexoxy)-N7,5,5-trimethyl-N7-(2-methylsulfanylethyl)-6H-benzo[h]quinazoline-4,7-diamine]",30 to 100,100 to 2000,< 100
"CN(CCCC#N)c1c(O[C@H]2CC[C@H](N)CC2)ccc2c1CC(C)(C)c1c(N)ncnc1-2 [Example 58, 4-[[4-amino-8-(4-trans-aminocyclohexoxy)-5,5-dimethyl-6H-benzo[h]quinazolin-7-yl]-methyl-amino]butanenitrile]",< 30,100 to 2000,< 100
"CC1(C)Cc2c(ccc(O[C@H]3CC[C@H](N)CC3)c2N2CC=CC2=O)-c2ncnc(N)c21 [Example 56, 1-[4-amino-8-(trans-4-aminocyclohexoxy)-5,5-dimethyl-6H-benzo[h]quinazolin-7-yl]-2H-pyrrol-5-one]",101 to 1000,> 2000,> 2000
"CC1(C)Cc2c(ccc(O[C@H]3CC[C@H](N)CC3)c2N2CCC(O)C2)-c2ncnc(N)c21 (single isomer, unassigned) [Example 15, 1-[4-amino-8-(trans-4-aminocyclohexoxy)-5,5-dimethyl-6H-benzo[h]quinazolin-7-yl]pyrrolidin-3-ol]",< 30,100 to 2000,< 100
"CCN(C)c1c(O[C@H]2CC[C@H](N)CC2)ccc2c1CC(C)(C)c1c(N)ncnc1-2 [Example 67, 8-(trans-4-aminocyclohexoxy)-N7-ethyl-N7,5,5-trimethyl-6H-benzo[h]quinazoline-4,7-diamine]",< 30,< 100,< 100
"CC1(C)Cc2c(ccc(O[C@H]3CC[C@H](N)CC3)c2N2CCC(C#N)C2)-c2ncnc(N)c21 (single isomer, unassigned) [Example 49, 1-[4-amino-8-(trans-4-aminocyclohexoxy)-5,5-dimethyl-6H-benzo[h]quinazolin-7-yl]pyrrolidine-3-carbonitrile]",< 30,< 100,< 100
"COc1ccc2c(c1N1CCC(C#N)C1)CC(C)(C)c1c(N)ncnc1-2 (stereo not drawn) [Example 55, 1-(4-amino-8-methoxy-5,5-dimethyl-6H-benzo[h]quinazolin-7-yl)pyrrolidine-3-carbonitrile]",30 to 100,< 100,< 100
"COCCNc1c(O[C@H]2CC[C@H](N)CC2)ccc2c1CC1(CCCC1)c1c(N)ncnc1-2 [Example 62, 8-(trans-4-aminocyclohexoxy)-N7-(2-methoxyethyl)spiro[6H-benzo[h]quinazoline-5,1′-cyclopentane]-4,7-diamine]",101 to 1000,100 to 2000,100 to 2000

# Second part, led by results:
IC50 (recombinant human CLK3) [nM],GI50 (MDA-MB-231 cells) [nM],SMILES,GI50 (CAL-51 cells) [nM]
30 to 100,100 to 2000,"CC1(C)Cc2c(ccc(O[C@H]3CC[C@H](N)CC3)c2NC2CC2)-c2ncnc(N)c21 [Example 84, 8-(trans-4-aminocyclohexoxy)-N7-cyclopropyl-5,5-dimethyl-6H-benzo[h]quinazoline-4,7-diamine]",< 100
30 to 100,100 to 2000,"COCCNc1c(O[C@H]2CC[C@@H](N)CC2)ccc2c1CC1(CCCC1)c1c(N)ncnc1-2 [Example 87, 8-(cis-4-aminocyclohexoxy)-N7-(2-methoxyethyl)spiro[6H-benzo[h]quinazoline-5,1′-cyclopentane]-4,7-diamine]",100 to 2000
30 to 100,> 2000,"CN(CC(C)(C)C(N)=O)c1c(O[C@H]2CC[C@H](N)CC2)ccc2c1CC(C)(C)c1c(N)ncnc1-2 [Example 88, 3-[[4-amino-8-(trans-4-aminocyclohexoxy)-5,5-dimethyl-6H-benzo[h]quinazolin-7-yl]-methyl-amino]-2,2-dimethyl-propanamide]",100 to 2000
< 30,100 to 2000,"COCCN(C)c1c(O[C@H]2CC[C@@H](N)CC2)ccc2c1CC1(CCCC1)c1c(N)ncnc1-2 [Example 75, 8-(cis-4-aminocyclohexoxy)-N7-(2-methoxyethyl)-N7-methyl-spiro[6H-benzo[h]quinazoline-5,1′-cyclopentane]-4,7-diamine]",< 100
30 to 100,> 2000,"Nc1ncnc2c1C1(CCCC1)Cc1c-2ccc(O[C@H]2CC[C@@H](N)CC2)c1NCC(=O)O [Example 79, 2-[[4-amino-8-(cis-4-aminocyclohexoxy)spiro[6H-benzo[h]quinazoline-5,1′-cyclopentane]-7-yl]amino]acetic acid]",> 2000
30 to 100,100 to 2000,"CN(CC#N)S(=O)(=O)c1c(O[C@H]2CC[C@H](N)CC2)ccc2c1CC(C)(C)c1c(N)ncnc1-2 [Example 113, 4-amino-8-(trans-4-aminocyclohexoxy)-N-(cyanomethyl)-N,5,5-trimethyl-6H-benzo[h]quinazoline-7-sulfonamide]",100 to 2000
< 30,100 to 2000,"CN(CCN)c1c(O[C@H]2CC[C@H](N)CC2)ccc2c1CC(C)(C)c1c(N)ncnc1-2 [Example 80, 8-(trans-4-aminocyclohexoxy)-N7-(2-aminoethyl)-N7,5,5-trimethyl-6H-benzo[h]quinazoline-4,7-diamine]",100 to 2000
< 30,< 100,"CN(CCC#N)c1c(OC2CCNCC2)ccc2c1CC(C)(C)c1c(N)ncnc1-2 [Example 93, 3-[[4-amino-5,5-dimethyl-8-(4-piperidyloxy)-6H-benzo[h]quinazolin-7-yl]-methyl-amino]propanenitrile]",< 100
30 to 100,100 to 2000,"CC1(C)Cc2c(ccc(Br)c2NC[C@@H]2CN(CCO)C(=O)O2)-c2ncnc(N)c21 [Example 127, (5R)-5-[[(4-amino-8-bromo-5,5-dimethyl-6H-benzo[h]quinazolin-7-yl)amino]methyl]-3-(2-hydroxyethyl)oxazolidin-2-one]",100 to 2000
